Test results reported in patent US11142505B2, “Compositions for APP-selective BACE inhibition and uses therefor” (The Regents of the University of California, priority 2015, dated 2021).
Values joined by “and” are separate entries in the source; they are usually repeats but may differ in a detail not shown here. Identical values can stand only once. Counter-ions that a name gives are not always drawn. Like-named read-outs stand apart in the source and are kept apart here.

Tests used:
[1] = test system: CHO-7W cells that were stably transfected with human APP (wildtype); test: Secondary cell-based test of APP processing (sAPPalpha, sAPPbeta, Abeta 1-42); details: for Aβ1-42 peptide formation, in words: FIG. 1C, FIG. 5B; for sAPP (α/β) / sAPPalpha / sAPPbeta / sAPPα/Aβ / Abeta 1-42: Secondary (1st test, n = 3); for sAPP (α/β) / sAPPα/Aβ: ratio; for sAPPbeta / Abeta 1-42: ↓ decrease
Text: Cellular Assays: Numerous cell-based assays can be used to evaluate the activity of agent(s) of interest on relative alpha-secretase activity to beta-secretase activity and/or processing of APP to release amyloidogenic versus non-amyloidogenic oligomers.
Relative activity of the alpha-secretase to the beta-secretase can be measured by analysis of one or more cleavage products of the APP substrate. For example, inhibition of beta-secretase activity against the substrate APP would be expected to decrease release of specific beta-secretase induced APP cleavage products such as Aβ (e.g., Aβ40 or Aβ42), sAPPβ and APPneo. Promotion or enhancement of alpha-secretase activity against the substrate APP would be expected to increase release of specific alpha-secretase induced APP cleavage products such as sAPPα and p3 peptide.
In such assays, for example, the cells expressing APP, alpha-secretase and/or beta-secretase are incubated in a culture medium under conditions suitable for alpha-secretase and/or beta-secretase enzymatic activity at its cleavage site on the APP substrate. On exposure of the cells to the agent(s), the amount of Aβ released into the medium and/or the amount of CTF99 fragments of APP in the cell lysates is reduced as compared with the control. The cleavage products of APP can be analyzed, for example, by immune reactions with specific antibodies, as discussed above.

[2] = pharmacokinetics, plasma and brain levels; format: in vivo
Text: As is readily apparent, not all compounds were equally able to cross the blood brain barrier, but most compounds did reach pharmacologically meaningful levels given their low IC50 values. FIG. 5A provides a further exemplary compound (FAH65) and FIG. 5B depicts dose response data for Aβ1-42 production in a cell based system.. Further shown are effects observed with regard to Aβ1-42 production, sAPPβ and sAPPα formation. […] Here, data are presented for oral and subcutaneous administration (SQ) at dosages of 10- and 30 mg/kg. […] Once more, it should be noted that these exemplary compounds are preferential towards APP in BACE inhibition as can be taken from the data for Aβ1-42, sAPPβ, and sAPPα formation.

solubility (Sol) = format: physicochemical; details: Table 3
BACE1 = BACE1 (Homo sapiens (Human), UniProt P56817); test: in vitro BACE inhibition assay (Primary BACE1 IC50); format: biochemical; details: for BACE activity / IC50 in the BACE assay, in words: FIG. 1B, FIG. 2B
Text: ABBI Assay: APP Binding BACE Inhibitor (ABBI) activity of any of the compounds described herein can readily be verified using, for example, assays described herein. […] In one illustrative embodiment, an MBP-C125 APP695 wt fusion protein can be used as one of the substrates and the second substrate can be the commercially available P5-P5′ fluorescence substrate.

[3] = Table 4, several values in a cell are repeat determinations, read-out: BACE1 IC50
[4] = one cell spans the readout columns

Sequence of BACE1 (P56817 46-501): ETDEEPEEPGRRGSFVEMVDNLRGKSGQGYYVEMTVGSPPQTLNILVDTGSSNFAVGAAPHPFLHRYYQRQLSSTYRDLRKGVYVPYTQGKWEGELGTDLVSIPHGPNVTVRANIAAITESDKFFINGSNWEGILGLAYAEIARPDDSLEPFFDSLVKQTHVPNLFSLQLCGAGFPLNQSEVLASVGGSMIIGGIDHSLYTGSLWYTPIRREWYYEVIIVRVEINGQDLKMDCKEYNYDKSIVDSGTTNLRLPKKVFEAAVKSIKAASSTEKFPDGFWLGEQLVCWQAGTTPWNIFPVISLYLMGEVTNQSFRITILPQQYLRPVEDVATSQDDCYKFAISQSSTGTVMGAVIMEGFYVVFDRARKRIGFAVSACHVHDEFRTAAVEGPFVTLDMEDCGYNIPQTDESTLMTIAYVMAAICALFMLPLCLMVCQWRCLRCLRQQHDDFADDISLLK

Compound | sAPP (α/β) ([1]; ↑ increase) | sAPPalpha ([1]; ↑ increase) | sAPPbeta [1] | sAPPα/Aβ ([1]; ↑ increase) | Abeta 1-42 [1] | further results
Cc1cc(C2(c3cccc(-c4cncnc4)c3)N=C(N)N(C)C2=O)ccc1OC(F)F (racemic) [FAH-65] | – | – | – | – | – | Aβ1-42 peptide formation, in words [1]: strongly reduces Aβ1-42 production; preference towards APP in BACE inhibition, in words ([1]; from Aβ1-42, sAPPβ and sAPPα formation): clear preference towards APP in BACE inhibition; brain levels / crossing the blood brain barrier, in words ([2]; FIG. 4, FIG. 5C (oral and SQ, 10 and 30 mg/kg)): pharmaceutically meaningful concentrations can be achieved in the brain
Cc1cc(C2(c3cnn(C)c3)N=C(N)N(C)C2=O)ccc1OC(F)F (stereo not drawn) [30 HCl] | ↑≈40% | ↑>10% | ↓>20% | – | – | –
Cc1cc(C2(c3cc(F)cc(F)c3)N=C(N)N(C)C2=O)ccc1OC(F)F (stereo not drawn) [FAH-03] | ↑≈50% | ↑>10% | ↓>20% | ↑>50% | ↓>20% | –
Cc1cc(C2(c3cccc(F)c3)N=C(N)N(C)C2=O)ccc1OC(F)F (stereo not drawn) [FAH-17] | ↑>100% | ↑>20% | ↓>30% | ↑>100% | ↓>30% | Sol (solubility (Sol)): Med; Cmax brain [2]: ~0.3 µM
Cc1cc(F)cc(C2(c3ccc(OC(F)F)c(C)c3)N=C(N)N(C)C2=O)c1 (stereo not drawn) [FAH-22] | ↑≈50% | ↑>10% | ↓>20% | ↑>100% | ↓>25% | IC50 (BACE1; [3]): 710 nM
Cc1cc(C2(c3cccc(Cl)c3)N=C(N)N(C)C2=O)ccc1OC(F)F (stereo not drawn) [FAH-23] | ↑>50% | ↑>20% | ↓>20% | ↑>100% | ↓>25% | –
Cc1cc(C2(c3cc(F)cc(Cl)c3)N=C(N)N(C)C2=O)ccc1OC(F)F (stereo not drawn) [FAH-25] | ↑≈50% | ↑>10% | ↓>20% | ↑>40% | ↓>20% | –
Cc1cccc(C2(c3ccc(OC(F)F)c(C)c3)N=C(N)N(C)C2=O)c1 (stereo not drawn) [FAH-27] | ↑>100% | ↑>30% | ↓>30% | ↑>100% | ↓>40% | –
Cc1cc(C2(c3cccc(C(F)(F)F)c3)N=C(N)N(C)C2=O)ccc1OC(F)F (stereo not drawn) [FAH-28] | ↑>50% | ↑>20% | ↓>20% | ↑>40% | ↓>20% | –
Cc1cc(C2(c3cccc(-c4cccnc4)c3)N=C(N)N(C)C2=O)ccc1OC(F)F (stereo not drawn) [FAH-32] | ↑>100% | ↑>20% | ↓>30% | ↑>100% | ↓>60% | BACE activity / IC50 in the BACE assay, in words (BACE1): significantly reduced IC50; Aβ1-42 peptide formation, in words [1]: substantially reduced; sAPPα formation, in words ([1]; FIG. 1D, compared to FAH17): increased sAPPα formation as compared to FAH17; sAPPβ formation, in words ([1]; FIG. 1D, compared to FAH17): reduced as compared to FAH17; Sol (solubility (Sol)): Med; Cmax brain [2]: <0.02 µM
Cc1cc(C2(c3cncnc3)N=C(N)N(C)C2=O)ccc1OC(F)F (stereo not drawn) [FAH-33] | ↑≈10% | ↑>10% | Unchanged | ↑>20% | ↓≈10% | –
Cc1cc(C2(c3cncc(F)c3)N=C(N)N(C)C2=O)ccc1OC(F)F (stereo not drawn) [FAH-37] | ↑>50% | ↑>10% | ↓>20% | – | ↓≈20% | BACE activity / IC50 in the BACE assay, in words (BACE1): less effective in reducing BACE activity in vitro; IC50 (BACE1; [3]): 1930 nM and 2800 nM and 4700 nM; IC50 (BACE1; Tables 1 and 2, read-out: Primary BACE1 IC50): 150 nM; sAPPα/Aβ ([1]; ↓ (decrease)): ↓>40%; Sol (solubility (Sol)): Good; Cmax brain [2]: ~0.11 uM μM
Cc1cc(C2(c3cocn3)N=C(N)N(C)C2=O)ccc1OC(F)F (stereo not drawn) [FAH-38] | – | – | – | – | – | Secondary (1st test) result across all readouts [1, 4]: unchanged
Cc1cc(C2(c3cccc(F)c3)N=C(N)N(Cc3ccccc3)C2=O)ccc1OC(F)F (stereo not drawn) [FAH-42] | ↑>50% | ↑>10% | ↓>30% | unchanged | ↓≈10% | –
COCc1cccc(C2(c3ccc(OC(F)F)c(C)c3)N=C(N)N(C)C2=O)c1 (stereo not drawn) [FAH-44] | ↑>100% | ↑>10% | ↓>30% | – | ↓>30% | IC50 (BACE1; Table 3, read-out: IC50): ~250 nM; sAPPα/Aβ ([1]; ↓ (decrease)): ↓>100%; Sol (solubility (Sol)): Excellent; Cmax brain [2]: ~0.2 µM
Cc1cc(C2(c3ccnc(F)c3)N=C(N)N(C)C2=O)ccc1OC(F)F (stereo not drawn) [FAH-46] | ↑≈10% | ↑>10% | ↓<10% | – | ↓>20% | sAPPα/Aβ ([1]; ↓ (decrease)): ↓>40%; Sol (solubility (Sol)): Good; Cmax brain [2]: ~0.3 µM
Cc1cc(C2(c3ccc(OC(F)F)c(C)c3)N=C(N)N(C)C2=O)ccn1 (stereo not drawn) [FAH-47] | ↑>50% | ↑>10% | ↓>20% | – | ↓≈10% | sAPPα/Aβ ([1]; ↓ (decrease)): ↓>20%
COc1cc(C2(c3ccc(OC(F)F)c(C)c3)N=C(N)N(C)C2=O)ccn1 (stereo not drawn) [FAH-48] | ↑≈50% | ↑>10% | ↓>20% | – | ↓≈10% | sAPPα/Aβ ([1]; ↓ (decrease)): ↓>20%
COCc1cc(C2(c3ccc(OC(F)F)c(C)c3)N=C(N)N(C)C2=O)ccn1 (stereo not drawn) [FAH-53] | ↑≈50% | ↑>10% | ↓<10% | – | ↓<10% | sAPPα/Aβ ([1]; ↓ (decrease)): ↓≈20%
Cc1cc(C2(C3CCCCC3)N=C(N)N(C)C2=O)ccc1OC(F)F (stereo not drawn) [FAH-59] | – | – | – | – | – | Secondary (1st test) toxicity [1, 4]: Toxic
CNCc1cccc(C2(c3ccc(OC(F)F)c(C)c3)N=C(N)N(C)C2=O)c1 (stereo not drawn) [FAH-62] | ↑≈50% | ↑>10% | ↓>20% | – | ↓<10% | sAPPα/Aβ ([1]; ↓ (decrease)): ↓≈30%; Sol (solubility (Sol)): Good
Cc1cc(C2(c3cccc(C4CNC4)c3)N=C(N)N(C)C2=O)ccc1OC(F)CF (stereo not drawn) [FAH-64] | – | – | – | – | – | IC50 (BACE1; [3]): 3200 nM
Cc1cc(C2(c3cccc(-c4cncc(F)c4)c3)N=C(N)N(C)C2=O)ccc1OC(F)F (stereo not drawn) [FAH-66] | – | – | – | – | – | IC50 (BACE1; [3]): 120 nM
Cc1cc(C2(C3CCN(C)CC3)N=C(N)N(C)C2=O)ccc1OC(F)CF (stereo not drawn) [FAH-67] | – | – | – | – | – | IC50 (BACE1; [3]): 24200 nM
CCCC1CC(C2(C3=CC(C)=C(OC(F)F)C(C)C3)N=C(N)N(C)C2=O)CCN1C (stereo not drawn) [FAH-68] | – | – | – | – | – | IC50 (BACE1; [3]): 16100 nM
